The source of these data is patent US20250122529A1, “POLYCISTRONIC VECTORS FOR CELL-BASED THERAPIES” (Sana Biotechnology, Inc., priority 2021, published 2025).

Data set [1] has as its system CyD-CD47 clones 2-G09 and 2-G11. The data set is described as follows: CyD kill curve with 5-FC (cell count). In kind it is cell-based. From the text:
Hollow triangles represent iPSCs; filled triangles represent differentiated cells.
The bicistronic vector was used to transduce induced pluripotent stem cells (iPSCs), which were then allowed to differentiate. Differentiation of CyD-CD47-expressing clones in 2D was not affected by safety switch expression (data not shown here).

Data set [2] relates to CD47-HSVtk clones. Particulars: range reported in literature; IC50s in CD47-HSVtk clones generally comparable; cited from earlier work.
Data set [3] concerns CD47-HSVtk clones. The data set is described as follows: HSVtk kill curve with GCV (flow cytometry with counting beads). The format is cell-based. Particulars: various amounts of GCV; after three days. From the text: Calculated IC50 and R square (R^2) values for each clone are also shown.
Background: In flow cytometry, cells or beads pass a laser one at a time.

Data set [4] concerns control clone. The data set is described as follows: GCV toxicity in control clone. In kind it is cell-based. Particulars: tested dose range.
The target in data set [5] is CD22 (Homo sapiens, UniProt P20273). Particulars: affinity matured variant; read-out: CD22 binding affinity; cited from earlier work.

On to `Nc1nc(=O)[nH]cc1F` [Construct 5-FC, 5-fluorocytosine], for which the killing entry in data set [1] (CyD in the presence of 5-FC, differentiated cells, clones 2-G09 and 2-G11) was “more than 99%”. Besides, the half-maximal inhibitory concentration (IC50) result in data set [1] (differentiated cells relative to iPSCs) was “comparable IC50s relative to iPSCs”.

`Nc1nc(O)c2ncn(COC(CO)CO)c2n1` [GCV, ganciclovir]: the IC50 in data set [2] was 10 to 100 nM. In addition, in data set [3], the “HSVtk killing (viable cell count %)” value was “dose-response HSVtk killing was achieved”. Further, the GCV toxicity entry in data set [4] was “no GCV toxicity”.

B1: m971-L7: affinity matured variant of m971 (protein)
scFv: QVQLQQSGPGMVKPSQTLSLTCAISGDSVSSNSVAWNWIRQSPSRGLEWLGRTYYRSTWYNDYAVSMKSRITINPDTNKNQFSLQLNSVTPEDTAVYYCAREVTGDLEDAFDIWGQGTMVTVSSGGGGSGGGGSGGGGSDIQMIQSPSSLSASVGDRVTITCRASQTIWSYLNWYRQRPGEAPNLLIYAASSLQSGVPSRFSGRGSGTDFTLTISSLQAEDFATYYCQQSYSIPQTFGQGTKLEIK
modifications: Synthetic: Anti-CD22 m971-L7 scFv entire sequence, with 3xG4S linker
For the molecule B1, the Kd in data set [5] was less than 0.05 nM.

A word on the IC50: it is the point on the concentration scale where inhibition reaches its midpoint.
